From patent US12415819B2, “Cu- and Ni-catalyzed decarboxylative borylation reactions” (The Scripps Research Institute, priority 2017, dated 2025)
Where “and” joins values, the source holds several entries; their conditions need not be identical. Identical values can stand only once.

How the values were obtained:
Plasma Stability Assay = type: in vitro ADME, mouse; settings: for % Remaining (mean): CD-1 Mouse Plasma; for portion intact in CD-1 mouse plasma: over 2 hours; for CD-1 Mouse Plasma % Remaining @ 2 hr: summary table
Experimental: Propantheline was used as the reference compound in this assay; all stock solutions were stored at −40° C. before use. • 2) Test system: CD-1 Mouse Plasma from a minimum of 20 male individuals were obtained from BioreclamationlVT (Catalog #: […]2-M; Batch #: MSE244515). EDTA-K2 was used as the anticoagulant. Procedure:
The frozen plasma was thawed in a water bath at 37° C. prior to the experiments. The plasma was centrifuged at 4000 rpm for 5 min and the clots were removed if necessary.
The pH was adjusted to 7.4±0.1 as necessary. An intermediate solution (1 mM) was prepared and a 100 μM dosing solution was prepared by diluting 10 μL of the intermediate solution with 90 μL 45% MeOH/H2O. Duplicate of test samples were made by mixing 98 μL of blank plasma with 2 μL of dosing solution (100 μM) to achieve the final concentration of 2 μM. Samples were incubated at 37° C. At each time point (0, 10, 30, 60, and 120 min), 400 μL of stop solution (consisting of 200 ng/mL tolbutamide and 20 ng/mL buspirone in 50% MeOH/CH3CN) was added to precipitate protein under thorough mixing. The sample plates were then centrifuged at 4,000 rpm for 10 min. An aliquot of supernatant (100 μL) was transferred from each well and mixed with 200 of μL ultrapure water. The samples were shaken at 800 rpm for about 10 min before LC-MS/MS analysis.
Data analysis: The % remaining of test compound after incubation in plasma was calculated using following equation: Remaining=100×(PAR at Tn/PAR at T0) where PAR is the peak area ratio of analyte versus internal standard (IS) and The appointed incubation time points are T0 (0 min), Tn (n=0, 10, 30, 60, 120 min).
LC-MS/MS condition: Each compound was analyzed by LC/MS using an ACE 5-phenyl 50×2.1 mm column (Part No. ACE-125-0502) with 0.1% formic acid in water and 0.1% formic acid in acetonitrile as the mobile phases. Tobultamide was used as the internal standard. Data collected were processed by Analyst 1.6.2 software and MultiQuant 3.0.2 software.

in vitro = settings: mouse, pH 7.4; for Extraction ratio / Microsomal stability (Mouse ER) / Remaining (*NCF = 60min) / Remaining (T = 60 min): 1 μM; for Microsomal stability (Mouse ER) / Remaining (*NCF = 60min) / Remaining (T = 60 min) / CLint scaled at 1 μM / half-life at 1 μM / microsomal CLint at 1 μM: microsomes; for Remaining (*NCF = 60min) / Remaining (T = 60 min): 1 h
Experimental: 100 mM potassium phosphate buffer, pH 7.4. • 2. 10 mM MgCl2 • 3) Compound Dilution:
Intermediate solution was prepared by diluting 5 μL of compound or control stock solution (10 mM in DMSO) with DMSO (45 μL) and 1:1 Methanol/Water (450 μL) (concentration=100 μM, 45% MeOH). Working solution was prepared by diluting 50 μL of the intermediate solution with 450 μL of 100 mM potassium phosphate buffer, pH=7.4 (centration=10 μM, 4.5% MeOH). • 4) NADPH regenerating system (final Isocitric dehydrogenase concentration=1 unit/mL at incubation) comprised:
10 μL/well of compound working solution or control working solution was added to all plates (T0, T5, T10, T20, T30, T60, NCF60) except the matrix blank. 80 μL/well of microsome solution was added to every plate. The mixtures of microsome solution and compound were incubated at 37° C. for about 10 min. 10 μL/well of NADPH regenerating system (pre-warmed to 37° C.) was then added to every plate to start the reaction. […] For NCF60 (abbreviation of no co-factor) no NADPH regenerating system was added, but was replaced by 10 μL/well of potassium phosphate buffer (100 mM, pH 7.4); the resulting mixture was incubated at 37° C. for 1 h.
The reactions were then terminated with the stop solution (cold at 4° C.) containing 100 ng/mL Tolbutamide and 100 ng/mL Labetalol ([…]). The sampling plates were shaken for approximately 10 minutes, then were centrifuged at 4000 rpm for 20 min at 4° C. While centrifuging, 8 new 96 well plates were loaded with […] of HPLC grade water. 100 μL of supernatant was finally added to 300 μL of HPLC grade water and mixed for LC/MS/MS analysis.
The equation of first order kinetics was used to calculate T1/2 and CIint(mic): […]

Kinetic Solubility Test = type: physicochemical; settings: for solubility kinetic at 24 h: aqueous buffer, kinetic from dmso stock, phosphate buffer pH 6.8, 24 h; for Kinetic solubility (pH 6.8): summary table
Experimental: The stock solution of each compound (10 μL; 10 mM in DMSO) was diluted with phosphate buffer solution (490 μL; 50 mM, pH 6.8). The resulting mixture was shaken for 24 h. Samples were then filtered.

[1] = target: human neutrophil elastase (Homo sapiens (Human), UniProt P08246); test: Elastase inhibition assay, purified human neutrophil elastase; type: biochemical; settings: purified HNE
human neutrophil elastase, sequence (P08246 30-247): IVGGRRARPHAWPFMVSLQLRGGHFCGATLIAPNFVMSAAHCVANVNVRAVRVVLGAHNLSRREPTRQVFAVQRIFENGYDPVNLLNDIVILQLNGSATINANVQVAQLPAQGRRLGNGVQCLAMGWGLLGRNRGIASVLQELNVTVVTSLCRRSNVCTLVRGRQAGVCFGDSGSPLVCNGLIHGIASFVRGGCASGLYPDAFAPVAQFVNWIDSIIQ

SMILES | % Remaining (mean) (Plasma Stability Assay; 0 min, 2 μM, 37° C.) [%] | % Remaining (mean) (Plasma Stability Assay; 10 min) [%] | % Remaining (mean) (Plasma Stability Assay; 30 min) [%] | % Remaining (mean) (Plasma Stability Assay; 60 min) [%] | % Remaining (mean) (Plasma Stability Assay; 120 min) [%] | portion intact in CD-1 mouse plasma (Plasma Stability Assay) [%] | CD-1 Mouse Plasma % Remaining @ 2 hr (Plasma Stability Assay) [%] | Extraction ratio (in vitro) | Microsomal stability (Mouse ER) (in vitro) | Remaining (*NCF = 60min) (in vitro) [%] | Remaining (T = 60 min) (in vitro) [%] | CLint scaled at 1 μM (in vitro) [mL/min/kg] | half-life at 1 μM (in vitro) [h] | microsomal CLint at 1 μM (in vitro) [µL/min/mg] | solubility kinetic at 24 h (Kinetic Solubility Test) | Kinetic solubility (pH 6.8) (Kinetic Solubility Test) [μm] | Ki [1] [nM]
CC(C)[C@H](NC(=O)[C@@H]1CCCN1C(=O)[C@@H](NC(=O)c1ccc(C(=O)NS(=O)(=O)c2ccc(Cl)cc2)cc1)C(C)C)B(O)O [Compound 51, (1-((S)-1-((4-(((4-chlorophenyl)sulfonyl)carbamoyl)benzoyl)-L-valyl)pyrrolidine-2-carboxamido)-2-methylpropyl)boronic acid] | 100.0 | 90.0 | 79.4 | 84.1 | 90.3 | 90 | 90.3 | <0.3 | <0.3 | 95.0 | 85.8 | < 38 | > 2.42 | < 9.6 | > 127 µg/mL and > 200 µM | >200 | 0.034
CC(C)[C@H](NC(=O)[C@@H]1CCCN1C(=O)[C@@H](NC(=O)c1ccc(C(=O)NCC(=O)O)cc1)C(C)C)B(O)O [Compound 52, (4-(((2S)-1-((2S)-2-((1-borono-2-methylpropyl)carbamoyl)pyrrolidin-1-yl)-3-methyl-1-oxobutan-2-yl)carbamoyl)benzoyl)glycine] | 100.0 | 116.1 | 104.8 | 96.4 | 79.2 | 79 | 79.2 | <0.3 | <0.3 | 103.6 | 78.9 | < 38 | > 2.42 | < 9.6 | > 104 µg/mL and > 200 µM | >200 | 0.0037
